Data on one compound can be found in PMC3130785, “Small Compound 6-O-Angeloylplenolin Induces Mitotic Arrest and Exhibits Therapeutic Potentials in Multiple Myeloma” (PLoS ONE, 2011).

Assay [1] concerns U266, RPMI 8226, MM.1S, and MM.1R cells. The experiment in a line: MTT assay, MM cell lines together. The class given is cell-based. Particulars: Homo sapiens, range over the four MM cell lines. Here is the method: (§1) U266, RPMI 8226 cells (1×10^4), primary CD138+ cells, PBMCs (5×10^4), and BMSCs (1×10^4) were cultured in 96-well dishes and incubated without or with 6-OAP at indicated concentration for 48 h. MM.1S and MM.1R cells (2×10^4) were seeded into 96-well dishes and pre-cultured for 24 h, then treated with 6-OAP for 48 h. Cell proliferation was determined by MTT assay. Cell viability was estimated by trypan blue dye exclusion.

Assay [2] deals with MM.1S cells. The experiment in a line: MTT assay with IL-6, IGF-I or BMSCs. Format: cell-based, human. Particulars: 48 h. The protocol:
as §1
Figure 5 6-OAP overcomes the protective effects of IL-6, IGF-I and BMSCs on MM cells. (A and B) MM.1S cells were cultured for 48 h with indicated concentrations of 6-OAP at the presence or absence of IL-6 (A) or IGF-I (B). Cell proliferation was assessed by MTT assay. (C) MM.1S and/or BMSCs cells were cultured for 48 h with indicated concentrations of 6-OAP. Cell proliferation was assessed by MTT assay. *p<.01,** p<.05. (D) MM.1S cells were serum starved for 2 h, then co-cultured without or with 6-OAP at 5 µM for 12 h, followed by stimulation with IL-6 at 10 ng/ml for indicated time points (upper panel), or IL-6 at 10 ng/ml for 1 h, followed by treatment with 6-OAP at indicated concentration for 12 h (lower panel). Whole-cell extracts were prepared and examined by Western blotting using antibodies against pJak2, pStat3, Stat3 or β-actin. (E) MM.1S cells were serum starved for 2 h, then co-cultured without or with 6-OAP (5 µM) for 12 h, followed by stimulation with IGF-I at 50 ng/ml for indicated time points (upper panel), or stimulated with IGF-I at 50 ng/ml for 1 h, followed by treatment with 6-OAP at indicated concentration for 12 h (lower panel). Whole-cell extracts were prepared and examined by western blotting using antibodies against pPDK1, pAkt, Akt or β-actin. (F) MM.1S cells were serum starved for 2 h, then co-cultured without or with 6-OAP (5 µM) for 12 h, followed by stimulation with TNF-α at 5 ng/ml for indicated time points. Whole-cell extracts were prepared and examined by Western blotting using indicated antibodies.

Assay [3] relates to pJak2 and pStat3. The experiment in a line: Western blotting, IL-6 stimulation. Format: cell-based, human. Particulars: MM.1S. The protocol:
Cell pellets were lysed in RIPA buffer containing 50 mM Tris pH 8.0, 150 mM NaCl, 0.1% SDS, 0.5% deoxycholate, 1% NP-40, 1 mM DTT, 1 mM NaF, 1 mM sodium vanadate, and protease inhibitors cocktail (Sigma). For immunoprecipitations, cells were lysed on ice for 15 minutes in RIPA buffer. Lysates were centrifuged. The supernatant was incubated with indicated antibodies overnight, after which protein A/G Plus beads (Santa Cruz Biotechnology) were added and incubated for 3 h. The beads were washed 4 times in RIPA buffer. Then the beads were resuspended in 1× sample buffer and boiled for 3 min. Protein extracts were quantitated and loaded on 8% to 12% sodium dodecyl sulfate polyacrylamide gel, electrophoresed, and transferred to a nitrocellulose membrane (Whatman). The membrane was incubated with primary antibody, washed, and incubated with horseradish peroxidase (HRP)–conjugated secondary antibody (Pierce). Detection was performed by using a chemiluminescent western detection kit (Cell Signaling). […]
Figure 5 6-OAP overcomes the protective effects of IL-6, IGF-I and BMSCs on MM cells. […] Cell proliferation was assessed by MTT assay. […] Cell proliferation was assessed by MTT assay. *p<.01,** p<.05. […]

Assay [4] deals with Staphylococcus aureus. The arrangement: method as in PMID 9461679, PMID 8657743, PMID 12521264. Conditions: cited from earlier work.
The subject of assay [5] is human colorectum, liver, stomach, lung, and skin tumor cells. More on the design: method as in PMID 20183316. Particulars: preliminary data; cited from earlier work.

In the case of `CC=C(C)C(=O)OC1C2C(CC(C)C3C=CC(=O)C31C)OC(=O)C2C` (centres unmarked) [6-OAP, 6-O-angeloylplenolin], the IC50 in assay [1] was 3.5 to 9.2 µM. The IGF-I-caused cell proliferation result in assay [2] (IGF-I 10 to 50 ng/ml, 6-OAP 5 to 7.5 µM) is recorded as “abolished IGF-I-caused cell proliferation”. Besides, the IL-6-promoted proliferation entry in assay [2] (IL-6 2 to 10 ng/ml, 6-OAP 5 to 7.5 µM) is “drastically reversed this effect”. The “BMSCs-facilitated MM.1S cell expansion” value in assay [2] (co-incubation with BMSCs, 6-OAP 5 or 7.5 µM) is listed as “significantly inhibited this effect”. The “pStat3 in cells upon IL-6” value in assay [3] (IL-6 10 ng/ml, then 6-OAP 5 to 10 µM for 12 h) is “dramatically reduced”. Also, the “IL-6-induced pJak2 and pStat3” value in assay [3] (pretreatment 6-OAP for 12 hours, IL-6 10 ng/ml 10 to 30 min) is “markedly inhibited IL-6-induced upregulation of pJak2 and pStat3”. Besides, the antibacterial activity result in assay [4] is “exhibit antibacterial activity”. Besides, in assay [5], the “proliferation of tumor cells” value was “could inhibit proliferation”.
